Four compounds from US20250000991A1, “NECTIN-4 ANTIBODIES AND ANTIBODY-DRUG CONJUGATES” (Eli Lilly and Company, priority 2023, published 2025) can be followed below.

Square brackets hold non-standard residues; d marks the D form. Peptide text beside a SMILES is read from it. * marks the point of attachment. Dolaproine = CO[C@@H]([C@@H]1CCCN1)[C@@H](C)C(=O)O; Dil = CC[C@H](C)[C@H](NC)[C@@H](CC(=O)O)OC; X1 = C[C@@H](N*)[C@@H](O)c1ccccc1; NMeV = CN[C@H](C(=O)O)C(C)C

Data set [1] relates to UMUC3-Luc-GFP Nectin-4 negative cells. Put plainly: Free payload cytotoxicity on UMUC3-Luc-GFP cells. The data set is classed as cell-based. Conditions: 5 days. The protocol:
(§1) UMUC3 cell line was engineered to express human Nectin4 and two clonal populations with different levels of expression were selected. In flat white clear-bottom 96-well plates, UMUC3-hNectin4 clone F7/UMUC3-Luc-GFP cells were mixed and seeded at a total of 1500 cells/well/100 ul with a ratio of 4:1 in assay medium (MEM+1× GlutaMax+10% Heat Inactivated Fetal Bovine Serum+1 mM sodium pyruvate). UMUC3-hNectin4 clone E3/UMUC3-Luc-GFP cells were mixed and seeded at a total of 2100 cells/well/100 ul with a ratio of 6:1 in assay medium. UMUC3-Luc-GFP cells were negative for nectin-4 expression. Plates were incubated at 37° C. with 5% CO2 overnight. Next day, ADCs were added at final working concentration from 100 nM, 1:3 serially diluted in assay medium. To assess sensitivity of cell line to free payload, free payloads were added at final working concentration from 200 nM, 1:3 serially diluted in assay medium. […] Plates were read after 5-days treatment using ONE-Glo™ Luciferase Assay System. […] Luminescence was read in the SpectraMax M5e. […] Percentage of UMUC3-Luc-GFP killing was calculated against no treatment as 0%. Data was graphed and analyzed using Graphpad Prism version 9.5.1. IC50 was determined via log(inhibitor) vs. response (three parameters) curve fitting for bystander activity and log(inhibitor) vs. response (four parameters) for free payload cytotoxicity.

Data set [2] has as its system HEKα cells (normal human epidermal keratinocytes). The experiment in a line: Binding to normal human epidermal keratinocytes by flow cytometry. Conditions: ADC (Formula XI, DAR of 8); read-out: EC50 of cell surface binding to normal human epidermal keratinocytes. In general terms: Flow cytometry measures light scatter and fluorescence of single cells or particles in a stream.
Description: To characterize binding of nectin-4 antibodies and ADCs of the present disclosure to normal human epidermal keratinocytes, HEKα cells were plated in 150×25 mm tissue culture dish (Corning Inc.) in complete culture medium (Dermal Cell Basal Medium+Keratinocytes Growth Kit, ATCC) at 1 million per well to achieve confluency within 24 hours. The differentiation process progressed for an additional 5-10 days. Following the induction of differentiation, cells were dissociated with 2 mg/mL Type XI Collagenase from Clostridium histolyticum (Sigma-Aldrich) at 37° C. Cells were counted and aliquoted to a V-bottom polypropylene 96-well plate (Thermo Scientific Nunc) at 10^5 cells/well. Antibodies and ADCs were added to cells starting at 300 nM, 1:4 serially diluted in assay buffer (1×DPBS containing 2% FBS, Gibco). Cells were incubated on a microplate shaker at 4° C., protected from light for 1 hour. After incubation, cells were washed twice with 200 uL/well of assay buffer and stained with Alexa Fluor 647-conjugated AffiniPure F(ab')2 Fragment Goat Anti-Human IgG (H+L) (Jackson ImmunoResearch) at 1:1,000 dilution. Following an hour incubation at 4° C., cells were washed twice with 200 uL/well of assay buffer and stained with Zombie Green fixable viability dye (BioLegend) at 1:2,000 dilution. Cells were incubated on a microplate shaker at 4° C. for 20 minutes. […]

For data set [3], the system named is T24-human Nectin-4-eGFP clone 3 cells. The experiment in a line: Internalization: degradation of nectin-4-eGFP signal by fluorescence imaging. The data set is classed as cell-based. Conditions: ADC (Formula XI, DAR of 8), 24 h time course. As to the method: T24 cell line was engineered to express human Nectin-4-eGFP and clonally selected for high expression. […] human Nectin-4-eGFP clone 3 cells were plated at 12,000 cells per well, in black clear-bottom CellCarrier Ultra 384-well microplates (Perkin Elmer) in complete culture medium (McCoy's 5A, modified, +10% FBS+Glutamax+400 μg/mL G418+Pen/Strep). Plates were covered with AeraSeal™ Sealing Films and incubated overnight at 37° C., 5% CO2. Next day, antibodies and ADCs were added to cells, starting at 300 nM at 1:3 dilution. Plates were covered with AeraSeal™ and placed in incubator for imaging on PerkinElmer Opera Phenix Screening System over a 24 h time course. Data were processed and analyzed in Harmony and Microsoft Excel and graphed in GraphPad Prism.

Data set [4] deals with T24-human nectin-4 clone 108. The experiment in a line: ADC cytotoxicity (CellTiter-Glo), high nectin-4 expression line. It is filed as cell-based. Conditions: T24 Nectin-4 clone 108, 5 days, ADC Formula XI DAR 8. For orientation: Cellular ATP, detected with luciferase, serves as a proxy for viable cell number.
Description: Plates were read after 5 days treatment using CellTiter-Glo Luminescent Cell Viability Assay. 100 ul/well CellTiter-Glo reagent were incubated in plates at room temperature for 10 min. Luminescence was read in the SpectraMax M5e. RLUs (Relative Light Units) were obtained with SoftMax Pro 5.4. Percentage of cell killing was calculated against no treatment as 0%. Data was graphed and analyzed using GraphPad Prism version 9.5.1. IC50 was determined via log(inhibitor) vs. response-variable slope (four parameters) curve fitting.
T24 cell line was engineered to express human nectin-4 and clonally selected. T24-human nectin-4 clone 108, a high expression clonal cell line, was seeded in culture medium (McCoy's 5A+1× GlutaMax+10% Heat Inactivated Fetal Bovine Serum+400 μg/ml G418). ADCs were added at final working concentration from 200 nM, 1:4 serially diluted in culture medium for 5 days.
In the next data set the test system is NCI-H1781 cells. Put plainly: ADC cytotoxicity (CellTiter-Glo), low nectin-4 expression line. It is filed as cell-based. To be noted: NCI H1781, 5 days, ADC Formula XI DAR 8.
In data set [5] the test system is T24 mScarlet clone 5 Nectin-4 negative cells. Put plainly: Bystander killing of T24-mScarlet clone 5 cells co-cultured with T24-human nectin4 clone108 (imaging). The data set is classed as cell-based. To be noted: T24-mScarlet clone5 : T24-human nectin4 clone108 9:1, 5 days, ADC Formula XI DAR 8; read-out: IC50 of bystander effect. As to the method:
T24 cell line was engineered to express mScarlet and clonally selected to test in bystander assay. T24-mScarlet clone5 and T24-human nectin4 clone108 were mixed and seeded at a total of 1000 cells/well/100 ul with a ratio of 9:1 in culture medium (McCoy's 5A+1× GlutaMax+10% Heat Inactivated Fetal Bovine Serum+400 μg/ml G418) in flat clear bottom 96-well plates. T24 mScarlet clone 5 cells were negative for nectin-4 expression. Plates were incubated at 37° C. with 5% CO2 overnight. Next day, ADCs were added at final working concentration from 50 nM, 1:4 serially diluted in culture medium. Plates were covered with Breathe-Easy® sealing membrane, placed in BioSpa and scanned in Cytation5 every day for 5 days.
Images of T24-mScarlet cells were captured and analyzed by Cytation5 with Gen5 Image Prime 3.11. Percentage of T24-mScarlet cell killing was calculated by decreased Integrated Intensity (area×mean intensity), normalized to zero hour and no treatment. Data was graphed and analyzed using GraphPad Prism version 9.5.1. IC50 was determined via log(inhibitor) vs. response-variable slope (four parameters) curve fitting.

The test system of data set [6] is T24-human nectin4 clone147 cells. Put plainly: In vitro CDC assay with human serum complement. It is filed as cell-based. Conditions: nectin-4 expressing T24 cell line. As to the method: T24 cell line was engineered to express high level of human Nectin4 and clonally selected. T24-human nectin4 clone147 cells were added in white clear-bottom 96-well tissue culture plates in assay medium (McCoy's 5A+1× GlutaMax+10% Heat Inactivated Fetal Bovine Serum) and incubated in the incubator at 37° C. with 5% CO2 overnight. Next day, 50 ul/well antibodies were added at final working concentration from 200 nM, 1:3 serially diluted in assay medium and incubated at 37° C. with 5% CO2 for one hour. Diluted human serum complement (1:3) was then added at 50 ul/well in assay medium and incubated at 37° C. with 5% CO2 for 3 hours. Plate was read using CellTiter-Glo Luminescent Cell Viability Assay. 100 ul/well CellTiter-Glo reagent were incubated in plates at room temperature for 10 min. Luminescence was read in the SpectraMax M5e. RLUs (Relative Light Units) were obtained with SoftMax Pro 5.4. Percentage of cell killing was calculated against no treatment. Data was graphed and analyzed using GraphPad Prism version 9.5.1.

The test system of data set [7] is UM-UC-3 Nectin4 clone F7 xenograft. Put plainly: Tumor xenograft, high nectin-4 expression. It is filed as in vivo, mice (nu/nu). To be noted: UMUC3 Nectin-4 clone F7 xenograft, single dose 2 mg/kg, day 40. As to the method: In order to test the efficacy of the nectin-4 ADCs of the present disclosure, which have effector null mutations in the Fc region, and to compare to the enfortumab antibody, which has wildtype Fc and in an ADC with the same payload background as the ones of this disclosure, two tumor xenograft models with either high or moderate nectin-4 expression were tested as described. Immune compromised female mice (nu/nu) between 5-8 weeks of age with weight 18-20 grams were implanted unilaterally on the right flank with UM-UC-3 Nectin4 clone F7 cells with high nectin-4 expression. […] The test articles were given at a single dose (2 mg/kg) formulated with 5% dextrose. Tumors were measured biweekly until Day 40.

The test system of a further data set is MDA-MB-468 xenograft. Put plainly: Tumor xenograft, moderate nectin-4 expression. The data set is classed as in vivo, NSG mice. To be noted: MDAMB468 xenograft, single dose 2 mg/kg, day 71. The protocol: In a separate study, female NSG mice between 5-6 weeks of age were injected subcutaneously with MDA-MB-468 cells with moderate Nectin-4 expression. When tumors reached approximately 150-250 mm^3; animals were matched by tumor volume into treatment or control groups and dosing initiated (Day 0, n=8 per group). The test articles were given at a single dose (2 mg/kg) formulated with 5% Dextrose. Tumors were measured biweekly until Day 71.
In both models, a 2 mg/kg single dose treatment of either the nectin-4 ADCs (exemplified herein with each of Abs1-8 conjugated as in Formula XI, and with a DAR of 8) or benchmark enfortumab ADC (enfortumab conjugated with Formula XI, and with a DAR of 8) was used. Tumor growth was measured at day 40 for UMUC3 Nectin-4 clone F7 and day 71 for MDAMB468 xenografts.

Data set [8] concerns UMUC3-Luc-GFP + UMUC3-hNectin4 clone E3. Put plainly: Bystander killing of UMUC3-Luc-GFP cells co-cultured with UMUC3-hNectin4 clone E3 (ONE-Glo). It is filed as cell-based, human. To be noted: UMUC3-Luc-GFP + UMUC3-hNectin4 clone E3, ratio 6:1, 5 days; read-out: IC50 of bystander effect. The protocol: as §1
Data set [9] deals with T24-hNectin-4 clone 14 cells (MMAE-resistant). Put plainly: ADC cytotoxicity in MMAE-resistant cells (CellTiter-Glo). It is filed as cell-based, human. To be noted: T24-hNectin-4 clone 14, 5 days. As to the method: In T24 nectin-4 cells that are resistant to MMAE, two nectin-4 ADCs described herein and enfortumab vedotin were tested for activity. T24-hNectin-4 clone 14 cells were seeded at 500 per well in 100 ul culture medium, in white clear-bottom 96-well tissue culture plates and incubated at 37° C. with 5% CO2 overnight. The next day each ADC was serially diluted 1:4, with a starting concentration of 400 nM, in culture medium. One-hundred ul of each ADC dilution was added per well and the plates were covered with a Breathe-Easy® sealing membrane and incubated at 37° C. with 5% CO2. After 5 days of treatment, the plates were removed from the incubator, placed at room temperature for 15 minutes, and 100 ul medium per well was removed. One hundred ul of CellTiter-Glo reagent was added per well and the plates were incubated at room temperature for 10 minutes. RLUs (Relative Light Units) were obtained by SpectraMax M5e with SoftMax Pro 5.4. Percentage of cell killing was calculated against DMSO only (for free payloads) or no treatment (for ADCs) as 0%. Data was graphed and analyzed using Graphpad Prism version 9.5.1. IC50s were determined via log(inhibitor) vs. response-variable slope (four parameters) curve fitting.

Data set [10] concerns UMUC3-Luc-GFP + UMUC3-hNectin4 clone F7. The experiment in a line: Bystander killing of UMUC3-Luc-GFP cells co-cultured with UMUC3-hNectin4 clone F7 (ONE-Glo). It is filed as cell-based, human. As to the method:
as §1, with “overnight.” for “overnight. Next day, ADCs were added at final working concentration from 100 nM, 1:3 serially diluted in assay medium. To assess sensitivity of cell line to free payload, free payloads were added at final working concentration from 200 nM, 1:3 serially diluted in assay medium.”, “ONE-GloTM” for “ONE-Glo™”, “cytotoxicity. […] In experiments run as essentially described herein, the bystander effects of four nectin-4 ADCs described herein and enfortumab vedotin were evaluated using the UMUC3-hNectin-4 cloneF7/UMUC3-Luciferase-GFP cell pair. […]” for “cytotoxicity.”

Description for NCI-H1781 cells: NCI-H1781 cells, a low expression cell line, were seeded in white clear-bottom 96-well tissue culture plates in culture medium (RPMI 1640+1× GlutaMax+10% Heat Inactivated Fetal Bovine Serum+1 mM sodium pyruvate). Cells were incubated at 37° C. with 5% CO2 overnight. Next day, ADCs were added at final working concentration from 100 nM, 1:3 serially diluted in culture medium. Plates were covered with Breathe-Easy® sealing membrane and incubated at 37° C. with 5% CO2. Plates were read after 5 days treatment using CellTiter-Glo Luminescent Cell Viability Assay. 100 ul/well CellTiter-Glo reagent were incubated in plates at room temperature for 10 min. Luminescence was read in the SpectraMax M5e. RLUs (Relative Light Units) were obtained with SoftMax Pro 5.4. Percentage of cell killing was calculated against no treatment as 0%. Data was graphed and analyzed using GraphPad Prism version 9.5.1. IC50 was determined via log(inhibitor) vs. response-variable slope (four parameters) curve fitting.

In data set [1], `CC[C@H](C)[C@@H]([C@@H](CC(=O)N1CCC[C@H]1[C@H](OC)[C@@H](C)C(=O)N[C@H](C)[C@@H](O)c1ccccc1)OC)N(C)C(=O)[C@@H](NC(=O)[C@@H](NC)C(C)C)C(C)C` [MMAE] (H-[NMeV]V[Dil][Dolaproine]-X1) displayed an IC50 of 0.38 nM.
Consider Enfortumab, for which the EC50 turned out to be 0.03 nM in data set [2] and 2.55 nM in data set [3] (read-out: EC50 of nectin-4-eGFP signal loss). Also, the “% activity (max GFP signal loss compared to enfortumab mAb (100%))” value in [3] is 119.9%. In addition, the IC50 in [4] was 0.0747 nM; in the data set with NCI-H1781 cells, 0.0409 nM; in data set [5], 0.0593 nM. For the same compound, the CDC potential entry in [6] was “did not show CDC potential”.
As to “Enfortumab ADC: benchmark: enfortumab conjugated with Formula XI, and with a DAR of 8 [reference compound]”, the Mean tumor volume in data set [7] was 812.22 mm^3; with MDA-MB-468 xenograft, 272.28 mm^3.
On to Enfortumab vedotin [reference compound], for which the IC50 in data set [8] was 0.35 nM; in [10] (UMUC3-Luc-GFP + UMUC3-hNectin4 clone F7, ratio 4:1, 5 days, read-out: IC50 of bystander effect), 4.3 nM. In data set [9], the “Activity against MMAE-resistant cells” value is given as “lost efficacy”. Besides, in data set [10] (UMUC3-hNectin-4 cloneF7/UMUC3-Luciferase-GFP 4:1, 5 days), the “Bystander effect (in words)” value was “much less potent bystander effect”.

Usually IC50 stands for the concentration needed to halve the response being measured. A word on the EC50: it is the concentration that produces a half-maximal response.
